Test results published in ChEMBL document CHEMBL1201862, “PubChem BioAssay data set” (2004).
“And” between values parts separate entries of the source, which are not always exact repeats. Equal entries are not always repeated.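 Five concentrations, 48 hours, 96-well plates. GI50 is the concentration that inhibits growth by half.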 The source made the active and inactive calls. No stated cut-off is given here; in the data, active = GI50 up to about 1.1 µM and inactive = higher.

How the values were obtained:
Assay in all cases: growth of human tumour cells (NCI), 48 h
OVCAR-8 = system: OVCAR-8
SF-539 = system: SF-539
SR = system: SR
HCT-116 = system: HCT-116
T47D = system: T47D
U-251 = system: U-251
CCRF-CEM = system: CCRF-CEM
MDA-MB-435 = system: MDA-MB-435
SK-OV-3 = system: SK-OV-3
K562 = system: K562
HCT-15 = system: HCT-15
SK-MEL-2 = system: SK-MEL-2
MCF7 = system: MCF7
UACC-257 = system: UACC-257
NCI-H460 = system: NCI-H460
HCC 2998 = system: HCC 2998
IGROV-1 = system: IGROV-1
BT-549 = system: BT-549
A498 = system: A498
MOLT-4 = system: MOLT-4
M14 = system: M14
SNB-75 = system: SNB-75
SF-268 = system: SF-268
SN12C = system: SN12C
MDA-MB-231 = system: MDA-MB-231
OVCAR-5 = system: OVCAR-5
NCI-H522 = system: NCI-H522
NCI-H23 = system: NCI-H23
SW-620 = system: SW-620
HOP-92 = system: HOP-92
UACC-62 = system: UACC-62
SNB-19 = system: SNB-19
COLO 205 = system: COLO 205
RXF 393 = system: RXF 393
OVCAR-4 = system: OVCAR-4
PC-3 = system: PC-3
NCI/ADR-RES = system: NCI/ADR-RES

## CC(C)CC(C/C=C1/CC(CO)(COC(=O)C(C)(C)C)OC1=O)CC(C)C (configuration not stated)
OVCAR-8
  GI50: 19 µM (inactive) and 17 µM (inactive)
SF-539
  GI50: 6.49 µM (inactive)
SR
  GI50: 1.51 µM (inactive)
HCT-116
  GI50: 15.9 µM (inactive) and 13.8 µM (inactive)
T47D
  GI50: 19.5 µM (inactive) and 11.7 µM (inactive)
U-251
  GI50: 8.13 µM (inactive)
CCRF-CEM
  GI50: 0.069 µM (active)
MDA-MB-435
  GI50: 410 nM (active) and 818 nM (active)
SK-OV-3
  GI50: 19.3 µM (inactive)
K562
  GI50: 173 nM (active) and 123 nM (active)
HCT-15
  GI50: 15 µM and 14.7 µM
SK-MEL-2
  GI50: 16.4 µM (inactive) and 11.9 µM (inactive)
MCF7
  GI50: 19.7 µM (inactive) and 18.2 µM (inactive)
UACC-257
  GI50: 16.4 µM (inactive) and 16.8 µM (inactive)
NCI-H460
  GI50: 278 nM (active) and 209 nM (active)
HCC 2998
  GI50: 1.28 µM (inactive) and 1.27 µM (inactive)
IGROV-1
  GI50: 15.2 µM (inactive) and 12.1 µM (inactive)
BT-549
  GI50: 11.7 µM (inactive) and 15.5 µM (inactive)
A498
  GI50: 10 µM (inactive) and 9.02 µM (inactive)
MOLT-4
  GI50: 1.3 µM (inactive) and 2.14 µM (inactive)
M14
  GI50: 12.1 µM (inactive) and 13.8 µM (inactive)
SNB-75
  GI50: 13.7 µM (inactive) and 11.1 µM (inactive)
SF-268
  GI50: 10.8 µM (inactive) and 12.4 µM (inactive)
SN12C
  GI50: 8.49 µM (inactive)
MDA-MB-231
  GI50: 3.03 µM (inactive)
OVCAR-5
  GI50: 6.7 µM (inactive) and 11.8 µM (inactive)
NCI-H522
  GI50: 14.1 µM (inactive) and 14.8 µM (inactive)
NCI-H23
  GI50: 11.8 µM (inactive) and 10.9 µM (inactive)
SW-620
  GI50: 4.37 µM (inactive) and 4.92 µM (inactive)
HOP-92
  GI50: 0.893 µM (active)
UACC-62
  GI50: 11.7 µM (inactive) and 15.2 µM (inactive)
SNB-19
  GI50: 10.5 µM (inactive) and 6.03 µM (inactive)
COLO 205
  GI50: 0.136 µM (active)
RXF 393
  GI50: 16.1 µM (inactive) and 21.8 µM (inactive)
OVCAR-4
  GI50: 16.2 µM (inactive) and 18.2 µM (inactive)
PC-3
  GI50: 8.89 µM (inactive) and 8.83 µM (inactive)
NCI/ADR-RES
  GI50: 14 µM (inactive) and 17.4 µM (inactive)
